SMILES strings stand for the structures.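 A five-concentration, 48-hour dose response in 96-well plates underlies each endpoint, interpolated linearly between surrounding concentrations. GI50 marks 50% less growth. The concentration for full growth arrest is given as TGI.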

Holding throughout (experiment): inhibition of tumour cell growth, NCI panel, 48 h
Test [1] has as its system K-562 leukemia.
In test [2] the test system is NCI-H226 lung.
Test [3] concerns UO-31 renal.
The test system of test [4] is SK-MEL-2 melanoma.
Test [5] has as its system M14 melanoma.
Test [6] deals with SF-539 CNS.
Test [7] concerns RPMI-8226 leukemia.
Test [8] deals with ACHN renal.
Test [9] deals with IGROV1 ovarian.
In test [10] the test system is EKVX NSCLC.

As to `CC(=O)c1cccc(-c2cccc(-c3ccn(CCN4CCOCC4)n3)c2)c1`, the GI50 in [1], in test [2], in test [3], in test [4], in test [5] and in test [6] was over 20 µM each time. Moreover, the GI50 in test [7], in test [8] and in test [9] was over 20 µM throughout. For the same compound, the TGI in test [1], in test [2], in [3], in test [4], in [5] and in test [6] was over 20 µM in each case. Moreover, the TGI in test [7], in test [8] and in test [9] was over 20 µM throughout.

In the case of `CCCCCCCCCCCCCC(=O)NCC(OCC)OCC`, the TGI in test [2], in test [3], in test [4], in [5], in test [6] and in [8] was over 100 µM in each case. In addition, the TGI in test [10] and in [9] was over 100 µM each time.

`CN1c2ccccc2S(=O)(=O)n2c(CCc3ccccc3)nnc21`: the TGI in [1], in test [2], in test [3], in [4], in [5] and in test [6] was over 100 µM each time. In addition, the TGI in [8], in test [10] and in test [9] was over 100 µM throughout.

With `Cc1ccc2sc3ccc(N)cc3c(=O)c2c1`, the TGI in test [1], in test [2], in [3], in [4], in test [5] and in test [6] was over 100 µM throughout. Further, the TGI in test [8], in test [10] and in test [9] was over 100 µM in each case.

In the case of `CC1=NOC(=O)C1N=Nc1ccc(Br)c(C)c1` (stereo not given), the TGI is 30.5 µM in test [1]; 53.4 µM in test [2]; 30.7 µM in test [4]; 36.1 µM in [5]; 44.6 µM in [6]; 40.7 µM in test [7]. Further, the TGI in test [8] came out at 32 µM; in test [10] it was 32 µM; in test [9], 39.4 µM.

On to `COC(=O)C(=O)C(C(=O)C(N)=O)c1nc2ccc(C(=O)c3ccccc3)cc2[nH]c1=O` (stereo not given), for which the TGI in test [1], in [2], in test [4], in [5], in [6] and in test [7] was over 100 µM each time. For the same compound, the TGI in test [8], in test [10] and in [9] was over 100 µM each time.

Turning to `COc1cc2c3c(c1OC)C1(C=CC(=O)C=C1)CC3NCC2` (stereo not given), the TGI in [1], in test [2], in test [4], in test [5], in test [6] and in test [7] was over 100 µM in each case. For the same compound, the TGI in test [8], in test [10] and in [9] was over 100 µM in each case.

Turning to `COc1cc(C2c3cc4c(cc3[C@@H](OCCN(C)C)C3COC(=O)[C@H]23)OCO4)cc(OC)c1O` (stereo not given in full), the TGI in test [1] was over 100 µM; in test [2] it was 0.288 µM; in test [3], 2.04 µM; in test [4], 4.03 µM; in test [5] it was 3.22 µM; in test [6], 0.702 µM. The values for the TGI in test [8], in test [10] and in [9] were 0.197 µM, 6.07 µM and 4.97 µM, respectively.

As to `C/C=C(/C)c1cnc(CC(C)C)c(=O)[nH]1`, the TGI in test [1], in [3], in test [4], in [7], in test [8] and in test [10] was over 100 µM each time. For the same compound, the TGI in test [9] was over 100 µM.

`CCCCN(CC)c1ncnc2ccc(Br)cc12`: the GI50 in test [1] is 10.4 µM; in test [2], 16.3 µM; in [3], 19.9 µM; in test [4], 29.5 µM; in test [5] it was 18.2 µM; in test [7], 3.71 µM. The GI50 in [8] is 14.5 µM; in test [9], 16.7 µM. Besides, the TGI was 51.1 µM in test [1]; 48 µM in [2]; 98.7 µM in [3]; over 100 µM in [4]; 34.7 µM in test [5]; 22.1 µM in test [7]. Besides, the TGI in test [8] is 40.3 µM; in test [9], over 100 µM.

`COc1cc2c3c(ncc2c(OC)c1OC)-c1cc2c(cc1C3)OCO2`: the GI50 was 4.27 µM in test [1]; 19.8 µM in test [3]; 11.7 µM in test [4]; over 100 µM in [5]; 33.4 µM in [7]; 20.7 µM in test [8]. Also, in test [10], the GI50 is 17.2 µM. In addition, the TGI in test [1] was 20.5 µM; in test [3], 68 µM; in test [4] it was 45.3 µM; in [5] it was over 100 µM; in test [7] it was over 100 µM; in test [8], 47.2 µM. In test [10], this compound came in with a TGI of 73.9 µM.

Take `Nc1ccc(C(=O)CC2(O)C(=O)Nc3c(Cl)cc(Cl)cc32)cc1` (stereo not given): the TGI in [1], in test [2], in [3], in [4], in [5] and in [6] was over 100 µM in each case. The TGI in test [7], in test [8] and in test [10] was over 100 µM throughout.

With `CC(C)(C)n1cc(-c2ccnc(NCCCNS(=O)(=O)c3ccc(Br)cc3)c2)c(-c2cccc(O)c2)n1`, the GI50 in test [1] was 2.02 µM; in [2], 2.31 µM; in test [3], 1.66 µM; in test [4] it was 2.13 µM; in test [5], 1.78 µM; in test [6], 1.7 µM. For the same compound, the values for the GI50 in test [8], in test [10] and in test [9] were 1.99 µM, 1.95 µM and 1.91 µM, respectively. The TGI in test [1] is over 100 µM; in test [2], 5.59 µM; in test [3], 3.89 µM; in test [4], 4.31 µM; in test [5], 3.29 µM; in [6], 3.17 µM. The TGI was 3.89 µM in test [8], 4.58 µM in [10] and 3.93 µM in test [9].

Turning to `Cc1c(Cl)cccc1NC(=O)/C(Cl)=C(\Cl)C(=O)O`, the TGI was over 100 µM in [1]; 51.3 µM in test [2]; 32.7 µM in test [3]; 49.2 µM in test [4]; 30.9 µM in test [5]; 31.7 µM in test [6]. Besides, the results for the TGI in test [7], in test [8] and in test [9] were 56.5 µM, 31.3 µM and 35.7 µM, respectively.

In the case of `O=c1cc(-c2ccccn2)[nH]c2cc(F)ccc12`, the TGI in [1], in test [2], in test [3], in [5], in test [6] and in test [7] was over 100 µM in each case. Besides, the TGI in [8], in [10] and in test [9] was over 100 µM each time.

Consider `COc1c(Sc2ccccc2)cc(Sc2ccccc2)c2cccnc12`, for which the TGI in test [1] was over 100 µM; in test [3], 54 µM; in test [4], 42.6 µM; in test [5] it was over 100 µM; in test [6] it was 85.5 µM; in [7] it was 50 µM. The TGI in [8], in [10] and in test [9] was over 100 µM in each case.

Take `COc1ccc(/C=C\c2cc(OC)c(OC)c(OC)c2)c(NS(=O)(=O)c2ccc(Cl)cc2)c1O`: the GI50 is 0.0323 µM in test [1]; 24.9 µM in test [2]; 0.0739 µM in [3]; 0.0659 µM in test [4]; 0.0913 µM in [5]; 0.0371 µM in test [6]. For the same compound, the GI50 was 0.207 µM in test [7], 0.0838 µM in [8] and 0.379 µM in test [9]. Besides, the TGI in [1] amounted to 20.2 µM; in test [2], 90.4 µM; in [3] it was 26.4 µM; in [4], 21.3 µM; in test [5], 56.3 µM; in test [6], 10.5 µM. Further, the TGI in test [7] was determined as 20.5 µM; in [8], 30.7 µM; in test [9], 49.5 µM.

Consider `COC(=O)c1ccc(CN2C(=O)C(Cl)=C(Nc3ccc(OC)c(Cl)c3)C2=O)cc1`, for which the GI50 in test [1] was 4.17 µM; in test [3] it was 31.8 µM; in [4], 20.5 µM; in test [5], 32.6 µM; in test [7], over 50 µM; in test [8], 8.44 µM. For the same compound, the figures for the GI50 in [10] and in test [9] were 22.3 µM and 10.6 µM, respectively. The TGI is over 50 µM in test [1]; over 50 µM in test [3]; over 50 µM in [4]; over 50 µM in test [5]; over 50 µM in test [7]; 18.4 µM in [8]. Further, the TGI in test [10] and in test [9] was over 50 µM in each case.

As for `C[C@]12CC[C@H]3[C@@H](CC[C@]4(O)C[C@@H](O)CC[C@]34CO)[C@@]1(O)CC[C@@H]2C1=CC(=O)OC1`, the TGI was over 100 µM in test [1]; 13.8 µM in test [2]; 8.23 µM in test [4]; 14.5 µM in test [5]; 2.41 µM in [6]; 6.83 µM in test [7]. Further, the figures for the TGI in [8], in test [10] and in [9] were 7.08 µM, 3.49 µM and over 100 µM, respectively.

Take `COc1cc(/C=C2\CC3C4CC=C5C[C@@H](O)CC[C@]5(C)C4CC[C@]3(C)C2=O)ccc1OCCCn1ccnc1` (stereo not given in full): the GI50 in test [1] was 17.6 µM; in [2], 19.6 µM; in test [3], 19.6 µM; in test [5], 15.2 µM; in test [6] it was 15.7 µM; in test [8], 11.2 µM. Moreover, the figures for the GI50 in test [10] and in [9] were 17 µM and 23.7 µM, respectively. For the same compound, the TGI in test [1] came to 39.2 µM; in test [2], 39.2 µM; in test [3], 55.2 µM; in [5], 33.3 µM; in test [6], 31.1 µM; in test [8], 24.7 µM. For the same compound, the TGI in test [10] came to 47.4 µM; in [9], 52.8 µM.

Take `CN(C)CCCc1c2ccccc2nc2ccc(Cl)cc12`: the TGI in test [1] turned out to be 67.7 µM; in [2] it was 40.7 µM; in test [4], 34.8 µM; in [5] it was 27.8 µM; in [6], 33.6 µM; in [7], 96.2 µM. Moreover, the values for the TGI in test [8], in test [10] and in [9] were 33.6 µM, 35.1 µM and 31 µM, respectively.

With `CCOC(=O)Nc1nc2cc(OCC)ccc2s1`, the GI50 in [1] was 3 µM; in [2], over 100 µM; in test [3], over 100 µM; in test [4], 16.3 µM; in test [5], 8.94 µM; in [6] it was over 100 µM. The figures for the GI50 in test [7], in [8] and in [9] were over 65.8 µM, over 100 µM and over 91.1 µM, respectively. Moreover, the TGI in test [1], in test [2], in test [3], in test [4], in test [5] and in [6] was over 100 µM throughout. Also, the TGI in [7], in test [8] and in [9] was over 100 µM each time.

Regarding `Cn1cc(C2=C(c3cn(C)c4cc(N)ccc34)C(=O)NC2=O)c2ccccc21`, the GI50 in [1] was 0.396 µM; in test [2] it was 3.59 µM; in test [3], 2.54 µM; in test [4], 4.26 µM; in [5] it was 4.96 µM; in test [6], 0.568 µM. Besides, the GI50 was 2.92 µM in test [7], 2.59 µM in test [8] and 6.05 µM in test [9]. Also, the TGI in test [1] was over 23.8 µM; in [2], 17.2 µM; in [3], 15.4 µM; in test [4] it was 10.6 µM; in test [5], over 25 µM; in [6], 2.27 µM. Further, the TGI is 11.6 µM in test [7], 12.1 µM in test [8] and 17.6 µM in test [9].

These data come from PubChem BioAssay (NCI).
